These are literature values, as cited in patent US6441047B2, “Combination therapy for treating glaucoma” (Alcon Manufacturing Ltd.., priority 1995, dated 2002).

For data set [1] the following is noted: Drugs of the Future, 1994, 19, 905-909.
For data set [2] the following is noted: Drugs of the Future, 1994, 19, 905-909. This is another data set of the same source.
For data set [3] the following is noted: Drugs of the Future, 1994, 19, 905-909. This is another data set of the same source.

Molecules are shown by their SMILES.

Consider `OC(CN1CCC(Cc2ccc(F)cc2)CC1)c1ccc(Cl)cc1` (stereo not drawn) [eliprodil], for which the oral bioavailability entry in data set [1] is “orally bioavailable”. Also, the “incidence of adverse effects upon administration” value in data set [2] is given as “low incidence of adverse effects”. Moreover, in data set [3], the blood-brain barrier penetration result was “effectively crosses the blood-brain barrier”.
